# Measured values from publication PMC4447944 (The Journal of Biological Chemistry, 2015).
# Legend:
# hABL1 = target: T1, hABL1 (Homo sapiens, UniProt P00519); assay: KINOMEscan; assay type: binding
# T1 construct: purchased DiscoverX (KINOMEscan platform)
# hADRβ2 [1] = target: T2, hADRβ2 (Homo sapiens, UniProt P07550); assay: β-arrestin Antagonist (Eurofins-CEREP); details: read-out: % Effect, Inhibition
# hH1 = hH1 (Homo sapiens, UniProt P35367); assay: β-arrestin Antagonist (Eurofins-CEREP); details: read-out: % Effect, Inhibition
# hERK4 = target: T3, hERK4 (Homo sapiens, UniProt P31152); assay: KINOMEscan; assay type: binding
# T3 construct: purchased DiscoverX
# hADRβ2 [2] = target: T2, hADRβ2; assay: cAMP Agonist (Eurofins-CEREP); details: @ 10 μM
# hLATS2 = target: T4, hLATS2 (Homo sapiens, UniProt Q9NRM7); assay: KINOMEscan; assay type: binding
# T4 construct: purchased DiscoverX (KINOMEscan platform)
# hERBB2 = target: T5, hERBB2 (Homo sapiens, UniProt P04626); assay: KINOMEscan; assay type: binding
# T5 construct: purchased DiscoverX
# hASK1 = target: T6, hASK1 (Homo sapiens, UniProt Q99683); assay: KINOMEscan; assay type: binding
# T6 construct: purchased DiscoverX
# hRIOK3 = target: T7, hRIOK3 (Homo sapiens, UniProt O14730); assay: KINOMEscan; assay type: binding
# T7 construct: purchased DiscoverX (KINOMEscan platform)
# hFYN = target: T8, hFYN (Homo sapiens, UniProt P06241); assay: KINOMEscan; assay type: binding
# T8 construct: purchased DiscoverX
# hFLT3(R834Q) = target: T9, hFLT3(R834Q) (Homo sapiens, UniProt P36888, R834Q); assay: KINOMEscan; assay type: binding
# T9 construct: purchased DiscoverX
# hRSK4(Kin.Dom.1-N-term) = target: T10, hRSK4(Kin.Dom.1-N-term) (Homo sapiens, UniProt Q9UK32); assay: KINOMEscan; assay type: binding
# T10 construct: hRSK4(Kin.Dom.1-N-term); purchased DiscoverX (KINOMEscan platform)
# hPIP5K1A = target: T11, hPIP5K1A (Homo sapiens, UniProt Q99755); assay: KINOMEscan; assay type: binding
# T11 construct: purchased DiscoverX
# hSRC = target: T12, hSRC (Homo sapiens, UniProt P12931); assay: KINOMEscan; assay type: binding
# T12 construct: purchased DiscoverX (KINOMEscan platform)
# hACVRL1 = target: T13, hACVRL1 (Homo sapiens, UniProt P37023); assay: KINOMEscan; assay type: binding
# T13 construct: purchased DiscoverX (KINOMEscan platform)
# hAURKA = target: T14, hAURKA (Homo sapiens, UniProt O14965); assay: KINOMEscan; assay type: binding
# T14 construct: purchased DiscoverX
# hRSK1(Kin.Dom.1-N-term) = target: T15, hRSK1(Kin.Dom.1-N-term) (Homo sapiens, UniProt Q15418); assay: KINOMEscan; assay type: binding
# T15 construct: hRSK1(Kin.Dom.1-N-term); purchased DiscoverX (KINOMEscan platform)
# hTYK2(JH1Dom.-catalytic) = target: T16, hTYK2(JH1Dom.-catalytic) (Homo sapiens, UniProt P29597); assay: KINOMEscan; assay type: binding
# T16 construct: hTYK2(JH1Dom.-catalytic); purchased DiscoverX
# hTLK1 = target: T17, hTLK1 (Homo sapiens, UniProt Q9UKI8); assay: KINOMEscan; assay type: binding
# T17 construct: purchased DiscoverX
# hINSR = target: T18, hINSR (Homo sapiens, UniProt P06213); assay: KINOMEscan; assay type: binding
# T18 construct: purchased DiscoverX (KINOMEscan panel)
# hANKK1 = target: T19, hANKK1 (Homo sapiens, UniProt Q8NFD2); assay: KINOMEscan; assay type: binding
# T19 construct: purchased DiscoverX
# hCSNK1G3 = target: T20, hCSNK1G3 (Homo sapiens, UniProt Q9Y6M4); assay: KINOMEscan; assay type: binding
# T20 construct: purchased DiscoverX (KINOMEscan platform)
# hD2L = hD2L (Homo sapiens, UniProt P14416); assay: cAMP Potentiation (Eurofins-CEREP); details: @ 10 μM
# hBRSK1 = target: T21, hBRSK1 (Homo sapiens, UniProt Q8TDC3); assay: KINOMEscan; assay type: binding
# T21 construct: purchased DiscoverX
# hFLT3(D835Y) = target: T22, hFLT3(D835Y) (Homo sapiens, UniProt P36888, D835Y); assay: KINOMEscan; assay type: binding
# T22 construct: purchased DiscoverX
# hMKNK1 = target: T23, hMKNK1 (Homo sapiens, UniProt Q9BUB5); assay: KINOMEscan; assay type: binding
# T23 construct: purchased DiscoverX
# hMAP4K3 = target: T24, hMAP4K3 (Homo sapiens, UniProt Q8IVH8); assay: KINOMEscan; assay type: binding
# T24 construct: purchased DiscoverX (KINOMEscan platform)
# h5HT2B = h5HT2B (Homo sapiens, UniProt P41595); assay: Calcium Mobilization Agonist (Eurofins-CEREP); details: @ 13.3 μM
# hFRK = target: T25, hFRK (Homo sapiens, UniProt P42685); assay: KINOMEscan; assay type: binding
# T25 construct: purchased DiscoverX
# hEPHA3 = target: T26, hEPHA3 (Homo sapiens, UniProt P29320); assay: KINOMEscan; assay type: binding
# T26 construct: purchased DiscoverX
# hGSK3B = target: T27, hGSK3B (Homo sapiens, UniProt P49841); assay: KINOMEscan; assay type: binding
# T27 construct: purchased DiscoverX
# hADRβ1 = hADRβ1 (Homo sapiens, UniProt P08588); assay: cAMP Potentiation (Eurofins-CEREP); details: @ 10 μM
# hHIPK2 = target: T28, hHIPK2 (Homo sapiens, UniProt Q9H2X6); assay: KINOMEscan; assay type: binding
# T28 construct: purchased DiscoverX
# hMEK2 = target: T29, hMEK2 (Homo sapiens, UniProt P36507); assay: KINOMEscan; assay type: binding
# T29 construct: purchased DiscoverX
# hTSSK1B = target: T30, hTSSK1B (Homo sapiens, UniProt Q9BXA7); assay: KINOMEscan; assay type: binding
# T30 construct: purchased DiscoverX
# hFXR = hFXR (Homo sapiens, UniProt Q96RI1); assay: Nuclear hormone receptor assay (Eurofins-CEREP)
# hPPARδ = target: T31, hPPARδ (Homo sapiens, UniProt Q03181); assay: Nuclear hormone receptor assay (Eurofins-CEREP); details: read-out: Relative IC50
# T31 construct: Eurofins-CEREP
# hERK2 = target: T32, hERK2 (Homo sapiens, UniProt P28482); assay: KINOMEscan; assay type: binding
# T32 construct: purchased DiscoverX
# hSNRK = target: T33, hSNRK (Homo sapiens, UniProt Q9NRH2); assay: KINOMEscan; assay type: binding
# T33 construct: purchased DiscoverX (KINOMEscan platform)
# hRARα = target: T34, hRARα (Homo sapiens, UniProt P10276); assay: Nuclear hormone receptor assay (Eurofins-CEREP); details: read-out: Relative IC50
# T34 construct: Eurofins-CEREP
# T2 sequence (P07550 whole entry): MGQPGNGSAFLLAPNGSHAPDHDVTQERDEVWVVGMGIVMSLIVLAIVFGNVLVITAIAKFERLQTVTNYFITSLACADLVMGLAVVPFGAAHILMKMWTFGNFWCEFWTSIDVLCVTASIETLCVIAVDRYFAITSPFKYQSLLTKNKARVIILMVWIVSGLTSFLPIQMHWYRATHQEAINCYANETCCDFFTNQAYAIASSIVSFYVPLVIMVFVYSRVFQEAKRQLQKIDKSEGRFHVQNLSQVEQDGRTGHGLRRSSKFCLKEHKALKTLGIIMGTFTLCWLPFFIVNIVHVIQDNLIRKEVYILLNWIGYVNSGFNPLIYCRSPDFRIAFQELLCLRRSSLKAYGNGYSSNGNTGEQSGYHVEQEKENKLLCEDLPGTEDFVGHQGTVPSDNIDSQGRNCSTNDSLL
# T30 sequence (Q9BXA7 whole entry): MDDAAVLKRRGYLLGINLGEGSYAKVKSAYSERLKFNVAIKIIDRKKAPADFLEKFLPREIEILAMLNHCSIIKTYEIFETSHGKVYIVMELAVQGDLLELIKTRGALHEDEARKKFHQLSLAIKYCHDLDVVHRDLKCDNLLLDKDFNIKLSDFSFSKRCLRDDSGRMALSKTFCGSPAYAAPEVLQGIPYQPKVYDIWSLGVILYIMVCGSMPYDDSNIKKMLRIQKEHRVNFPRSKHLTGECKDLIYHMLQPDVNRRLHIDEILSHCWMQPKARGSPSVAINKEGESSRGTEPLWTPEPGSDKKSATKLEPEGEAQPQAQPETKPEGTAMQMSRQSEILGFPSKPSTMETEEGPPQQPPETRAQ
# T26 sequence (P29320 21-983): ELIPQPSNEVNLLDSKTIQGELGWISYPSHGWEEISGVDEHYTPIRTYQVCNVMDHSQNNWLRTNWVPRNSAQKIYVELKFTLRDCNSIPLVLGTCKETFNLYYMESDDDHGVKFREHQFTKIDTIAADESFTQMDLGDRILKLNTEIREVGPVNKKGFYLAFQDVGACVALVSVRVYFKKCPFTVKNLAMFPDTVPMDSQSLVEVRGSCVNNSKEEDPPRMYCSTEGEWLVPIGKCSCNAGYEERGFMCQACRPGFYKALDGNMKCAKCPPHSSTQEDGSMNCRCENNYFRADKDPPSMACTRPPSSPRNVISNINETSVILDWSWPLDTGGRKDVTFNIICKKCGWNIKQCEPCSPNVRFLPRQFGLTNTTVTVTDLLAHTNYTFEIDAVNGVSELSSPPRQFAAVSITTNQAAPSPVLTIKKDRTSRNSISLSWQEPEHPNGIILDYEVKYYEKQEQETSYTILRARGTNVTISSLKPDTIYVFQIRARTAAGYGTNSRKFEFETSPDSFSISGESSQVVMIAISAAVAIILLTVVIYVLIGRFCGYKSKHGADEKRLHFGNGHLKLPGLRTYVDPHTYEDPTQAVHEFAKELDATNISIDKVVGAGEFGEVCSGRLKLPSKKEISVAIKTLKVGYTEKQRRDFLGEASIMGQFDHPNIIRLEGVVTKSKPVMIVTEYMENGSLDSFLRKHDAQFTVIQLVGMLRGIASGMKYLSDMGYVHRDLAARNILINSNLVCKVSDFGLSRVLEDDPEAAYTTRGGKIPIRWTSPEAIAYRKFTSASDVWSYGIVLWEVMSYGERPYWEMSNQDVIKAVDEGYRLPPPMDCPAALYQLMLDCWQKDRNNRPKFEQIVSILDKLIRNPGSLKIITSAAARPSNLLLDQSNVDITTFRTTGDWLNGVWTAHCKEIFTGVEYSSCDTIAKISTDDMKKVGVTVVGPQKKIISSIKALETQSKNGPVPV
# T5 sequence (P04626 23-1255): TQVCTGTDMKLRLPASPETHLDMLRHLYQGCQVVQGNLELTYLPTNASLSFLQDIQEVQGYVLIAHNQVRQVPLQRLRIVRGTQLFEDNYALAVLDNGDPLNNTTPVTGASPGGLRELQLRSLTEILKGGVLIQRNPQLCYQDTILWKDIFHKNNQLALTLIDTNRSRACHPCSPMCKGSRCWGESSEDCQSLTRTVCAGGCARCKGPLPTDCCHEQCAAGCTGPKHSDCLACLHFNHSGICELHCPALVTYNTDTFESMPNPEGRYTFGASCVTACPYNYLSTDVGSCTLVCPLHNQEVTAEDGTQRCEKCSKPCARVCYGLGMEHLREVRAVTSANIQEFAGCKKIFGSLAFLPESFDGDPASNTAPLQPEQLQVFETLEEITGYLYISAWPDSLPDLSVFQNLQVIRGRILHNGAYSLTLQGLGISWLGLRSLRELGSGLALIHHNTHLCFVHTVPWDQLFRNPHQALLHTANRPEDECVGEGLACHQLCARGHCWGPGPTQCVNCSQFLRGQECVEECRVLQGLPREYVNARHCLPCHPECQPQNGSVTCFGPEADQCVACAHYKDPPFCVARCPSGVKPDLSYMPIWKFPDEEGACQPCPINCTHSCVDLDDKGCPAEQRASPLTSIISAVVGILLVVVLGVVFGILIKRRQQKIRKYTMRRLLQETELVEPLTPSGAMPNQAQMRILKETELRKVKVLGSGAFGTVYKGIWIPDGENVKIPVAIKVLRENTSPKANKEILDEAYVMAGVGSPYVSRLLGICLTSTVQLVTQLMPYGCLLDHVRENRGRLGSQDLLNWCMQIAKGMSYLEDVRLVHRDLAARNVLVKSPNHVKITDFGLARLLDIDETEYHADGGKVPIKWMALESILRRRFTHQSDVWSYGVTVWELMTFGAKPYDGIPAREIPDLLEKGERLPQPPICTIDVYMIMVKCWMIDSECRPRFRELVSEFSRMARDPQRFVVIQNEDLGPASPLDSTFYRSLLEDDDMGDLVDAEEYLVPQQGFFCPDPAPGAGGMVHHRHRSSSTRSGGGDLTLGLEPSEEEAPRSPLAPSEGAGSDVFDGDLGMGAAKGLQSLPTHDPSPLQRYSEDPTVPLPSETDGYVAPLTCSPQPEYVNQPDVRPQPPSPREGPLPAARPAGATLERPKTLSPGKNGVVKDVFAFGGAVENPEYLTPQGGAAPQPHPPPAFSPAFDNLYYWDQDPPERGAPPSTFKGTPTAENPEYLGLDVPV
# T32 sequence (P28482 whole entry): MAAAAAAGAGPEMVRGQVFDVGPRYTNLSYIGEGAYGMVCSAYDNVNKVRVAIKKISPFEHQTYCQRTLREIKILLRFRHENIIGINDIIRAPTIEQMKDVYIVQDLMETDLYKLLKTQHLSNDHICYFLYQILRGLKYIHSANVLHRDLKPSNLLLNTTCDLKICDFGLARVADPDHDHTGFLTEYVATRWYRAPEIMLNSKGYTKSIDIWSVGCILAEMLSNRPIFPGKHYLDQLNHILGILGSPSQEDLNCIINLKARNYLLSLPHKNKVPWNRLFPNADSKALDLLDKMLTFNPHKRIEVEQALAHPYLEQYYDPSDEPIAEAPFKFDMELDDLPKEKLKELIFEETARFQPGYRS
# h5HT2B, sequence (P41595 whole entry): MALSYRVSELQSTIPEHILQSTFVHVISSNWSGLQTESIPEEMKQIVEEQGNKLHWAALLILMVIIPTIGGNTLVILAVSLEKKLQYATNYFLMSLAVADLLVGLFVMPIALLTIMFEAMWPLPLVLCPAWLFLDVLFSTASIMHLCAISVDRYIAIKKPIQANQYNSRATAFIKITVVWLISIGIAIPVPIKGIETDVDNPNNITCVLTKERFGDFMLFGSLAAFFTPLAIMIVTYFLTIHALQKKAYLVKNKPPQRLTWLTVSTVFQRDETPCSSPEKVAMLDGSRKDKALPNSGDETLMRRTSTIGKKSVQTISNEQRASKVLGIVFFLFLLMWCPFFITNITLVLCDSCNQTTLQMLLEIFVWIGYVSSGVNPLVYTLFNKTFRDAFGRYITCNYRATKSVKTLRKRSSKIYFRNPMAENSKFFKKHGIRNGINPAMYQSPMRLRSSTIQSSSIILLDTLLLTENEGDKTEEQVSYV
# T33 sequence (Q9NRH2 whole entry): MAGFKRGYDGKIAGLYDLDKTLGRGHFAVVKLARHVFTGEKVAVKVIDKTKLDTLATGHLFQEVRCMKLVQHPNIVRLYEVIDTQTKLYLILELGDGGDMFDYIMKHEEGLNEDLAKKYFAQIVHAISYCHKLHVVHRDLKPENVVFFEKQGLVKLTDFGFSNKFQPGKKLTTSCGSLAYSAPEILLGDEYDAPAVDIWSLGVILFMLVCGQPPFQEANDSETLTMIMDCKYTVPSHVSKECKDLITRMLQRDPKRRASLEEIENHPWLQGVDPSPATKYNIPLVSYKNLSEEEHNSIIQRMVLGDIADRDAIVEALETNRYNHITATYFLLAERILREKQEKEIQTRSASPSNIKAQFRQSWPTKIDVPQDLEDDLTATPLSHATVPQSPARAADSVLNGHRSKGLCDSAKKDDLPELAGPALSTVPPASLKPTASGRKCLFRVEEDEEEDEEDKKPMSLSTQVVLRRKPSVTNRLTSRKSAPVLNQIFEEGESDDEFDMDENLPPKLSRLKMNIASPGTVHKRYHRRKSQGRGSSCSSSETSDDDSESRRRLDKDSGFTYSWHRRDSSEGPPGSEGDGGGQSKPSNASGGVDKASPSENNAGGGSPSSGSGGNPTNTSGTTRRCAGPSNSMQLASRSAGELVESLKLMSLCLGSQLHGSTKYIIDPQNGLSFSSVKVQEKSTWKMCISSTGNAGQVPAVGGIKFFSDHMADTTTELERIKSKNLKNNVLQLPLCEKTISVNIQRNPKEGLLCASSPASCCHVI
# T27 sequence (P49841 whole entry): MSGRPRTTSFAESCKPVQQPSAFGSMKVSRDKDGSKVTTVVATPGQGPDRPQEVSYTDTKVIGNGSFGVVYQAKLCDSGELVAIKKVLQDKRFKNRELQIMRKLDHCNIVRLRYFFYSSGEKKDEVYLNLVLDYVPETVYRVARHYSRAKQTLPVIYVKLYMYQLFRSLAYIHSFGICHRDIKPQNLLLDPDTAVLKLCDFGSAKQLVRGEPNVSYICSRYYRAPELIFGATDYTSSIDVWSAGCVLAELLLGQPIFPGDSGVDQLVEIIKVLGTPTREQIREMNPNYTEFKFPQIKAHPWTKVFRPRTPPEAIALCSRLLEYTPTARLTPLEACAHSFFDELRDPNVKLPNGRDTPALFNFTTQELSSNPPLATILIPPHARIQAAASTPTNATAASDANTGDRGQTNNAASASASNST
smiles,measurement,setting,value
"Cc1cn(CCN2CCN(c3ccccc3-c3cc(C#N)cc(C(=O)NCCCN4CCCC4)c3)CC2)c2ccccc12 [LLY-507, 3-cyano-5-{2-[4-[2-(3-methylindol-1-yl)ethyl]piperazin-1-yl]-phenyl}-N-[(3-pyrrolidin-1-yl)propyl]benzamide]",IC50,hABL1,> 20 µM
same,inhibition at 10 µM,hADRβ2 [1],-15.6%
same,inhibition at 10 µM,hH1,30.1%
same,IC50,hERK4,> 20 µM
same,"% Effect, Stimulation",hADRβ2 [2],0.1%
same,IC50,hLATS2,> 20 µM
same,IC50,hERBB2,> 20 µM
same,IC50,hASK1,> 20 µM
same,IC50,hRIOK3,> 20 µM
same,IC50,hFYN,> 20 µM
same,IC50,hFLT3(R834Q),> 20 µM
same,IC50,hRSK4(Kin.Dom.1-N-term),> 20 µM
same,IC50,hPIP5K1A,16.4 µM
same,IC50,hSRC,> 20 µM
same,IC50,hACVRL1,> 20 µM
same,IC50,hAURKA,> 20 µM
same,IC50,hRSK1(Kin.Dom.1-N-term),> 20 µM
same,IC50,hTYK2(JH1Dom.-catalytic),> 20 µM
same,IC50,hTLK1,> 20 µM
same,IC50,hINSR,> 20 µM
same,IC50,hANKK1,> 20 µM
same,IC50,hCSNK1G3,> 20 µM
same,"% Effect, Potentiation",hD2L,-27.5%
same,IC50,hBRSK1,> 20 µM
same,IC50,hFLT3(D835Y),> 20 µM
same,IC50,hMKNK1,> 20 µM
same,IC50,hMAP4K3,> 20 µM
same,"% Effect, Stimulation",h5HT2B,3.4%
same,IC50,hFRK,> 20 µM
same,IC50,hEPHA3,> 20 µM
same,IC50,hGSK3B,> 20 µM
same,"% Effect, Potentiation",hADRβ1,32.1%
same,IC50,hHIPK2,> 20 µM
same,IC50,hMEK2,> 20 µM
same,IC50,hTSSK1B,> 20 µM
same,IC50,hFXR,> 10 µM
same,IC50,hPPARδ,> 10 µM
same,IC50,hERK2,> 20 µM
same,IC50,hSNRK,> 20 µM
same,IC50,hRARα,> 10 µM
